# Source: patent publication US11339161B2, “Triazolo pyridines as modulators of gamma-secretase” (Boehringer Ingelheim International GmbH, priority 2017, dated 2022)
# Read-outs that look alike come from different tables or passages of the source.
# What was measured:
# AURKA (Aurora A) = biological target: T1, AURKA (Aurora A) (Homo sapiens, UniProt O14965); assay: Z'-LYTE SelectScreen biochemical kinase assay AURKA (Aurora A)
# T1 sequence (O14965 1-403): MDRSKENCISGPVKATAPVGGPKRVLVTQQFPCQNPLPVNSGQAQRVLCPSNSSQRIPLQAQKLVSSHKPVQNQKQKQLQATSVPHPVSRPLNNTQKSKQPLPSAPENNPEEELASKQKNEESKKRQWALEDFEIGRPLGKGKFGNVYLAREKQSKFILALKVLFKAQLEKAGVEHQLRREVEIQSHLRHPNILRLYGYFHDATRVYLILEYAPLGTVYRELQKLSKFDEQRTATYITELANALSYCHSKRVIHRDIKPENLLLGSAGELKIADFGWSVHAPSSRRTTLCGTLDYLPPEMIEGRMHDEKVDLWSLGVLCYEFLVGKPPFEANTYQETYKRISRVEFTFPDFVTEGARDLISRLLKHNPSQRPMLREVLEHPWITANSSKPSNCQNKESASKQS
# Description: (§1) Thermo Fisher Scientific SelectScreen™ Biochemical Kinase Profiling Service Z′-LYTE™ Screening Protocol and Assay Conditions Assay Theory
# (§2) The […] biochemical assay employs a fluorescence-based, coupled-enzyme format and is based on the differential sensitivity of phosphorylated and non-phosphorylated peptides to proteolytic cleavage. The peptide substrate is labeled with two fluorophores—one at each end—that make up a FRET pair. In the primary reaction, the kinase transfers the gamma-phosphate of ATP to a single tyrosine, serine or threonine residue in a synthetic FRET-peptide. In the secondary reaction, a site-specific protease recognizes and cleaves non-phosphorylated FRET-peptides. Phosphorylation of FRET-peptides suppresses cleavage by the Development Reagent. Cleavage disrupts FRET between the donor (i.e., coumarin) and acceptor (i.e., fluorescein) fluorophores on the FRET-peptide, whereas uncleaved, phosphorylated FRET-peptides maintain FRET. A ratiometric method, which calculates the ratio (Emission Ratio=Coumarin emission (445 nm)/Fluorescein emission (520 nm)) of donor emission to acceptor emission after excitation of the donor fluorophore at 400 nm, is used to quantitate reaction progress, as shown in the equation below. A significant benefit of this ratiometric method for quantitating reaction progress is the elimination of well-to-well variations in FRET-peptide concentration and signal intensities. As a result, the assay yields very high Z′-factor values (>0.7) at a low percent phosphorylation. Both cleaved and uncleaved FRET-peptides contribute to the fluorescence signals and therefore to the Emission Ratio. The extent of phosphorylation of the FRET-peptide can be calculated from the Emission Ratio. The Emission Ratio will remain low if the FRET-peptide is phosphorylated (i.e., no kinase inhibition) and will be high if the FRET-peptide is non-phosphorylated (i.e., kinase inhibition).
# (§3) The Test Compounds are screened in 1% DMSO (final) in the well. For 10 point titrations, 3-fold serial dilutions are conducted from the starting concentration of the customer's choosing.
# (§4) All Peptide/Kinase Mixtures are diluted to a 2× working concentration in the appropriate Kinase Buffer (see section Kinase Specific Assay Conditions for a complete description).
# (§5) All ATP Solutions are diluted to a 4× working concentration in Kinase Buffer (50 mM HEPES pH 7.5, 0.01% BRIJ-35, 10 mM MgCl2, 1 mM EGTA). ATP Km apparent is previously determined using a Z″-LYTE assay.
# (§6) The Development Reagent is diluted in Development Buffer (see section Kinase-Specific Assay Conditions—Direct and Cascade for a complete description).
# (§7) Bar-coded Corning, low volume NBS, black 384-well plate (Corning Cat. #4514) • 1. 100 nL—100× Test Compound in 100% DMSO • 2. 2.4 μL—Kinase buffer • 3. 5 μL—2× Peptide/Kinase Mixture • 4. 2.5 μL—4×ATP Solution • 5. 30—second plate shake • 6. 60—minute Kinase Reaction incubation at room temperature • 7. 5 μL—Development Reagent Solution • 8. 30—second plate shake • 9. 60—minute Development Reaction incubation at room temperature • 10. Read on fluorescence plate reader and analyze the data Z′-LYTE Assay Controls
# (§8) SelectScreen Kinase Profiling Service uses XLfit from IDBS. The dose response curve is curve fit to model number 205 (sigmoidal dose-response model).
# The 2×AURKA (Aurora A)/Ser/Thr 01 mixture is prepared in 50 mM HEPES pH 7.5, 0.01% BRIJ-35, 10 mM MgCl2, 1 mM EGTA. The final 10 μL Kinase Reaction consists of 0.91-8.56 ng AURKA (Aurora A) and 2 μM Ser/Thr 01 in 50 mM HEPES pH 7.5, 0.01% BRIJ-35, 10 mM MgCl2, 1 mM EGTA. After the 1 hour Kinase Reaction incubation, 5 μL of a 1:4096 dilution of Development Reagent A is added.
# panel of 15 kinases = assay: Z'-LYTE SelectScreen kinase panel: number of kinases with <40% inhibition; format: biochemical; settings: of 15 kinases tested; 10 μmolar compound; ATP at Km app
# MAP4K4 (HGK) = MAP4K4 (HGK) (Homo sapiens, UniProt O95819); assay: Z'-LYTE SelectScreen biochemical kinase assay MAP4K4 (HGK)
# Chain of MAP4K4 (HGK) (O95819 whole entry): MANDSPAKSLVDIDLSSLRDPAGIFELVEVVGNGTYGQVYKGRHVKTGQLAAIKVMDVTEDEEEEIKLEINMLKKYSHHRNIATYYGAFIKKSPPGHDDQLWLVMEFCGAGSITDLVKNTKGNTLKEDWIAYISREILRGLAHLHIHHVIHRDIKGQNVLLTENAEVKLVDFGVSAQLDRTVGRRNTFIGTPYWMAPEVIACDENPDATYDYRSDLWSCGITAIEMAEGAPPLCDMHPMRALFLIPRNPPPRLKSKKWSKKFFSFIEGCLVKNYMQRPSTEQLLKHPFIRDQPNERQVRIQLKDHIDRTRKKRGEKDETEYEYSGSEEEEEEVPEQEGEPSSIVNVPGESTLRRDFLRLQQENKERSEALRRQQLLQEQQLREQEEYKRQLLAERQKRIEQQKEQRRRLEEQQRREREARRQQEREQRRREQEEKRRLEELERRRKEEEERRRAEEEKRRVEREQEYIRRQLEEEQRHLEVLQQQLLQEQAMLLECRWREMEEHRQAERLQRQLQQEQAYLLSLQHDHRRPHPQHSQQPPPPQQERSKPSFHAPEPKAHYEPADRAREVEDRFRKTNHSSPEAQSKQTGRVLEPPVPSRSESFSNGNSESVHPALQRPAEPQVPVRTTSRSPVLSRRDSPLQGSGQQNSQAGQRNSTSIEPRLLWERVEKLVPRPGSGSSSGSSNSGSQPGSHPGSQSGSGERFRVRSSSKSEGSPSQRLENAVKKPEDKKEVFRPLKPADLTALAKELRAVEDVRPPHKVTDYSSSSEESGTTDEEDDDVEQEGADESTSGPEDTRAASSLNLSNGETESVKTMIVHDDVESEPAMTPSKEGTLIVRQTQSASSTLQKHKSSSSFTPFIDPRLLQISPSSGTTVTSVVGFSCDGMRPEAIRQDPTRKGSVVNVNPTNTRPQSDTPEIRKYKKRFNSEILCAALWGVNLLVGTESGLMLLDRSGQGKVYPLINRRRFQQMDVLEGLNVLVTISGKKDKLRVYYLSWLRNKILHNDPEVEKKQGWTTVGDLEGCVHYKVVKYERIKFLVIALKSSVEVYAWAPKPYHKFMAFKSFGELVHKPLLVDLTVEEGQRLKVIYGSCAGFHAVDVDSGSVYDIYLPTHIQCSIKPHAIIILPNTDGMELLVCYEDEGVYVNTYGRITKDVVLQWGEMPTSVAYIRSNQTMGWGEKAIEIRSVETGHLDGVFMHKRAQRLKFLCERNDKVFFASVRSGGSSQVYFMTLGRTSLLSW
# Description: as §1, §2, §3, §4, §5, §6, §7, §8
# The 2×MAP4K4 (HGK)/Ser/Thr 07 mixture is prepared in 50 mM HEPES pH 7.5, 0.01% BRIJ-35, 10 mM MgCl2, 1 mM EGTA. The final 10 μL Kinase Reaction consists of 0.36-1.82 ng MAP4K4 (HGK) and 2 μM Ser/Thr 07 in 50 mM HEPES pH 7.5, 0.01% BRIJ-35, 10 mM MgCl2, 1 mM EGTA. After the 1 hour Kinase Reaction incubation, 5 μL of a 1:45000 dilution of Development Reagent A is added.
# kinases = assay: Z'-LYTE SelectScreen kinase panel: number of kinases with <40% inhibition out of 15 tested; format: biochemical; settings: 10 μmolar (10000 nM) compound; [ATP] Km app; 15 kinases tested
# [1] = 10 μmolar compound concentration, ATP at Km app, read-out: AURKA (Aurora A) inhibition
# [2] = read-out: % Inhibition mean AURKA (Aurora A)
# [3] = 10 μmolar compound concentration, ATP at Km app, read-out: MAP4K4 (HGK) inhibition
# [4] = read-out: % Inhibition mean MAP4K4 (HGK)
Compound,inhibition at 10 µM (AURKA (Aurora A); [1]),inhibition at 10 µM (AURKA (Aurora A); [2]),No. of kinases with <40% inhibition (panel of 15 kinases),inhibition at 10 µM (MAP4K4 (HGK); [3]),inhibition at 10 µM (MAP4K4 (HGK); [4]),No. of kinases with <40% inhibition (kinases)
"CCn1ncc2c1CC[C@H](Nc1nc3c(-c4ccc(F)c(Cl)c4)cccn3n1)C2 [Example S-61, (S)-[8-(3-Chloro-4-fluoro-phenyl)-[1,2,4]triazolo[1,5-a]pyridine-2-yl]-(1-ethyl-4,5,6,7-tetrahydro-1H-indazol-5-yl)-amine]",< 40%,-21%,15/15,< 40%,11%,
"Cc1cc(F)ccc1-c1cccn2nc(NC3CCc4c(cnn4C(C)C)C3)nc12 (stereo not shown) [Example 44, [8-(4-fluoro-2-methyl-phenyl)-[1,2,4]triazolo[1,5-a]pyridine-2-yl]-(1-isopropyl-4,5,6,7-tetrahydro-1H-indazol-5-yl)-amine]",< 40%,7%,,< 40%,37%,13/15
"Cc1cc(F)ccc1-c1cccn2nc(NC3CCc4c(cnn4CC(C)C)C3)nc12 (stereo not shown) [Example 45, [8-(4-fluoro-2-methyl-phenyl)-[1,2,4]triazolo[1,5-a]pyridine-2-yl]-(1-isobutyl-4,5,6,7-tetrahydro-1H-indazol-5-yl)-amine]",< 40%,-13%,,< 40%,2%,14/15
"CCCn1ncc2c1CCC(Nc1nc3c(-c4ccc(F)cc4C)cccn3n1)C2 (stereo not shown) [Example 43, [8-(4-fluoro-2-methyl-phenyl)-[1,2,4]triazolo[1,5-a]pyridine-2-yl]-(1-propyl-4,5,6,7-tetrahydro-1H-indazol-5-yl)-amine]",< 40%,-17%,,40 to 80%,40%,14/15
"CCn1nc(Cl)c2c1CCC(Nc1nc3c(-c4ccc(F)cc4C)cccn3n1)C2 (stereo not shown) [Example 48, (3-Chloro-1-ethyl-4,5,6,7-tetrahydro-1H-indazol-5-yl)-[8-(4-fluoro-2-methyl-phenyl)-[1,2,4]triazolo[1,5-a]pyridine-2-yl]-amine]",< 40%,-14%,,40 to 80%,50%,14/15
"CCn1ncc2c1C(C)CC(Nc1nc3c(-c4cc(F)c(F)c(F)c4)cccn3n1)C2 (stereo not shown) [Example 49, (1-Ethyl-7-methyl-4,5,6,7-tetrahydro-1H-indazol-5-yl)-[8-(3,4,5-trifluoro-phenyl)-[1,2,4]triazolo[1,5-a]pyridine-2-yl]-amine]",< 40%,-14%,,40 to 80%,54%,14/15
"CCn1nnc2c1CCC(Nc1nc3c(-c4ccc(F)cc4C)cccn3n1)C2 (stereo not shown) [Example 51, (1-Ethyl-4,5,6,7-tetrahydro-1H-benzotriazol-5-yl)-[8-(4-fluoro-2-methyl-phenyl)-[1,2,4]triazolo[1,5-a]pyridine-2-yl]-amine]",< 40%,8%,,< 40%,-8%,15/15
"CCCCn1ncc2c1CCC(Nc1nc3c(-c4ccc(F)cc4C)cccn3n1)C2 (stereo not shown) [Example 46, [8-(4-fluoro-2-methyl-phenyl)-[1,2,4]triazolo[1,5-a]pyridine-2-yl]-(1-butyl-4,5,6,7-tetrahydro-1H-indazol-5-yl)-amine]",< 40%,14%,,40 to 80%,48%,14/15

# Other lines, results leading:
inhibition at 10 µM (AURKA (Aurora A); [1]),inhibition at 10 µM (AURKA (Aurora A); [2]),No. of kinases with <40% inhibition (panel of 15 kinases),inhibition at 10 µM (MAP4K4 (HGK); [3]),inhibition at 10 µM (MAP4K4 (HGK); [4]),No. of kinases with <40% inhibition (kinases),Compound
< 40%,-21%,13/15,40 to 80%,57%,,"CCn1ncc2c1CCC(Nc1nc3c(-c4cccc(Cl)c4)cccn3n1)C2 (stereo not shown) [Example 59, [8-(3-Chloro-phenyl)-[1,2,4]triazolo[1,5-a]pyridine-2-yl]-(1-ethyl-4,5,6,7-tetrahydro-1H-indazol-5-yl)-amine]"
40 to 80%,42%,11/15,< 40%,16%,,"CCn1ncc2c1CCC(Nc1nc3c(-c4ccc(OC)nc4)cccn3n1)C2 (stereo not shown) [Example 71, (1-Ethyl-4,5,6,7-tetrahydro-1H-indazol-5-yl)-[8-(6-methoxy-pyridin-3-yl)-[1,2,4]triazolo[1,5-a]pyridine-2-yl]-amine]"
> 80%,85%,8/15,40 to 80%,74%,,"CCn1ncc2c1CCC(Nc1nc3c(-c4cncc(Cl)c4)cccn3n1)C2 (stereo not shown) [Example 73, [8-(5-Chloro-pyridin-3-yl)-[1,2,4]triazolo[1,5-a]pyridine-2-yl]-(1-ethyl-4,5,6,7-tetrahydro-1H-indazol-5-yl)-amine]"
< 40%,6%,14/15,40 to 80%,49%,,"CCn1ncc2c1CCC(Nc1nc3c(-c4ccc(C)nc4)cccn3n1)C2 (stereo not shown) [Example 67, (1-Ethyl-4,5,6,7-tetrahydro-1H-indazol-5-yl)-[8-(6-methyl-pyridin-3-yl)-[1,2,4]triazolo[1,5-a]pyridine-2-yl]-amine]"
< 40%,25%,15/15,< 40%,39%,,"CCn1ncc2c1CCC(Nc1nc3c(-c4cccnc4OC)cccn3n1)C2 (stereo not shown) [Example 69, (1-Ethyl-4,5,6,7-tetrahydro-1H-indazol-5-yl)-[8-(2-methoxy-pyridin-3-yl)-[1,2,4]triazolo[1,5-a]pyridine-2-yl]-amine]"
< 40%,27%,,40 to 80%,48%,12/15,"CCn1ncc2c1CCC(Nc1nc3c(-c4ccccc4C)cccn3n1)C2 (stereo not shown) [Example 56, (1-Ethyl-4,5,6,7-tetrahydro-1H-indazol-5-yl)-[8-(2-methyl-phenyl)-[1,2,4]triazolo[1,5-a]pyridine-2-yl]-amine]"
